What follows are compounds tested against T1, TBK1 (Homo sapiens, UniProt Q9UHD2) (assay: TBK1 protein kinase assay ([γ-33P]ATP, P81 filterplates)). Conditions: 50 μM ATP; read-out: Potency (TBK1 IC50 potency score).
T1 construct: All protein kinases were of human origin and encoded full length proteins, unless indicated otherwise; His6; made in house; host or cells: insect Sf21 cells
T1 sequence (Q9UHD2 1-729): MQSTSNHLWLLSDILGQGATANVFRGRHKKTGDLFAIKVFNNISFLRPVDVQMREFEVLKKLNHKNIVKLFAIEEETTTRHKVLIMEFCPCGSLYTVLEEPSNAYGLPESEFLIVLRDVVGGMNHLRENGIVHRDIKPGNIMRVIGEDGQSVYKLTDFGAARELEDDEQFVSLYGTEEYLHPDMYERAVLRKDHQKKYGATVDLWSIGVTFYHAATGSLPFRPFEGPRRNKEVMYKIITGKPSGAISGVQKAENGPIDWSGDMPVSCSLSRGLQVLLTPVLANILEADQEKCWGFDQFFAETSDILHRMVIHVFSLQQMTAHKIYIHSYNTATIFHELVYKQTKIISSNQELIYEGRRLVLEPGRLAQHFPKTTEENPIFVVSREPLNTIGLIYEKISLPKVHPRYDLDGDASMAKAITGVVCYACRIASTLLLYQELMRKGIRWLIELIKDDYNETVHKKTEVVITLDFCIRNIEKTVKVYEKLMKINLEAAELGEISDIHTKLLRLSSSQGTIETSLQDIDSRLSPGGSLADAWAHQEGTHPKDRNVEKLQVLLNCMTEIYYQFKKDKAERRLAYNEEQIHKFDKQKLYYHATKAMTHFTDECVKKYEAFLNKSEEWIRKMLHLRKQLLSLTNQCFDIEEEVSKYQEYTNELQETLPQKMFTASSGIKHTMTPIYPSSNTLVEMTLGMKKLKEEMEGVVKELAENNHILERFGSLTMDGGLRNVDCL
Type: biochemical
Outline: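 Human TBK1 assayed for 30 min with peptide substrate (300 μM), 50 μM [γ-33P]ATP and 10 mM magnesium acetate in 50 mM Tris/HCl pH 7.5, 0.1 mM EGTA, 0.1% 2-mercaptoethanol. Stopped with orthophosphoric acid and counted on P81 filters. IC50 from 10 compound concentrations.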
Work on `O=C(NCCCNc1nc(Nc2ccc(CO)nc2)ncc1C1CC1)C1CCC1` [Example 103, Cyclobutanecarboxylic acid {3-[5-cyclopropyl-2-(6-hydroxymethyl-pyridin-3-ylamino)-pyrimidin-4-ylamino]-propyl}-amide] yielded an IC50 of under 100 nM. For `O=C(NCCCNc1nc(Nc2ccc(CN3CCOCC3)nc2)ncc1C1CC1)C1CCC1` [Example 104, Cyclobutanecarboxylic acid {3-[5-cyclopropyl-2-(6-morpholin-4-ylmethyl-pyridin-3-ylamino)-pyrimidin-4-ylamino]-propyl}-amide], the IC50 was under 100 nM. Work on `O=C(NCCCOc1nc(Nc2cccc(F)c2)ncc1C1CC1)C1CCC1` [Example 105] yielded an IC50 of 100 to 1000 nM. `CN(CCCNC(=O)C1CCC1)c1nc(Nc2cccc(F)c2)ncc1C1CC1` [Example 106, Cyclobutanecarboxylic acid (3-{[5-cyclopropyl-2-(3-fluoro-phenylamino)-pyrimidin-4-yl]-methyl-amino}-propyl)-amide] gave an IC50 of 100 to 1000 nM. For `CN(CCCNc1nc(Nc2cccc(F)c2)ncc1C1CC1)C(=O)C1CCC1` [Example 107, Cyclobutanecarboxylic acid {3-[5-cyclopropyl-2-(3-fluoro-phenylamino)-pyrimidin-4-ylamino]-propyl}-methyl-amide], the IC50 was under 100 nM. `CCCC(=O)NCCCNc1nc(Nc2cccc(F)c2)ncc1C1CC1` [Example 108] showed an IC50 of under 100 nM. Work on `CN(CCCNc1nc(Nc2ccc(N3CCOCC3)nc2)ncc1C1CC1)C(=O)C1CCC1` [Example 109, Cyclobutanecarboxylic acid {3-[5-cyclopropyl-2-(6-morpholin-4-yl-pyridin-3-ylamino)-pyrimidin-4-ylamino]-propyl}-methyl-amide] yielded an IC50 of under 100 nM. In the case of `O=C1CCCCN1CCCNc1nc(Nc2cccc(F)c2)ncc1C1CC1` [Example 110], the IC50 is reported as 100 to 1000 nM. Compound `Cc1cccn(CCCNc2nc(Nc3cccc(F)c3)ncc2C2CC2)c1=O` [Example 111, 1-{3-[5-Cyclopropyl-2-(3-fluoro-phenylamino)-pyrimidin-4-ylamino]-propyl}-3-methyl-H-pyridin-2-one] has an IC50 of 100 to 1000 nM. In the case of `CN1CCN(CCCNc2nc(Nc3cccc(F)c3)ncc2C2CC2)C1=O` [Example 112, 1-{3-[5-Cyclopropyl-2-(3-fluoro-phenylamino)-pyrimidin-4-ylamino]-propyl}-3-methyl-imidazolidin-2-one], the IC50 is reported as 100 to 1000 nM. In the case of `CC1(C)CCN(CCCNc2nc(Nc3cccc(F)c3)ncc2C2CC2)C1=O` [Example 113, 1-{3-[5-Cyclopropyl-2-(3-fluoro-phenylamino)-pyrimidin-4-ylamino]-propyl}-3,3-dimethyl-pyrrolidin-2-one], the IC50 is reported as 100 to 1000 nM. `O=c1c(C(F)(F)F)cccn1CCCNc1nc(Nc2cccc(F)c2)ncc1C1CC1` [Example 114, 1-{3-[5-Cyclopropyl-2-(3-fluoro-phenylamino)-pyrimidin-4-ylamino]-propyl}-3-trifluoromethyl-1H-pyridin-2-one] was tested, and the IC50 was 100 to 1000 nM. `Cn1cc(-c2ccc(Nc3ncc(C4CC4)c(NCCCNC(=O)C4CCC4)n3)cn2)cn1` [Example 115, Cyclobutanecarboxylic acid (3-{5-cyclopropyl-2-[6-(1-methyl-1H-pyrazol-4-yl)-pyridin-3-ylamino]-pyrimidin-4-ylamino}-propyl)-amide] gave an IC50 of under 100 nM. `O=C(NCCCNc1nc(Nc2ccc(-c3cncnc3)nc2)ncc1C1CC1)C1CCC1` [Example 116, Cyclobutanecarboxylic acid {3-[5-cyclopropyl-2-(6-pyrimidin-5-yl-pyridin-3-ylamino)-pyrimidin-4-ylamino]-propyl}-amide] was tested, and the IC50 was under 100 nM. With `O=C(NCCCNc1nc(Nc2cccc(-c3cncnc3)c2)ncc1C1CC1)C1CCC1` [Example 117, Cyclobutanecarboxylic acid {3-[5-cyclopropyl-2-(3-pyrimidin-5-yl-phenylamino)-pyrimidin-4-ylamino]-propyl}-amide] the IC50 was under 100 nM.
